According to PubChem BioAssay AID248 (DTP/NCI, 2004):
Inconclusive results and toxic doses are left out. Cut-off read from the data, not from the text of the source: active = T/C of 150% or more; inactive = T/C below 125%.

Test system: L1210 leukemia ip in BDF1 mice, survival T/C
Assay: NCI In Vivo Anticancer Drug Screen. Data for tumor model L1210 Leukemia (intraperitoneal) in B6D2F1 (BDF1) mice
Details: endpoint: mean survival time, higher = longer survival
Procedure, shortened: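 Ratio derived from survival: compound-dosed mice over vehicle-dosed mice, all bearing a transplantable tumor.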

[1] = dose: 100.0 mg/kg/injection, schedule: Q01DX001 (ip), vehicle: saline
[2] = dose: 100.0 mg/kg/injection, schedule: Q01DX009 (ip), vehicle: saline
[3] = dose: 200.0 mg/kg/injection, schedule: Q01DX001 (ip), vehicle: saline
[4] = dose: 400.0 mg/kg/injection, schedule: Q01DX001 (ip), vehicle: saline
[5] = dose: 50.0 mg/kg/injection, schedule: Q01DX001 (ip), vehicle: carboxymethylcellulose (CMC)
[6] = dose: 100.0 mg/kg/injection, schedule: Q01DX001 (ip), vehicle: carboxymethylcellulose (CMC)
[7] = dose: 200.0 mg/kg/injection, schedule: Q01DX001 (ip), vehicle: carboxymethylcellulose (CMC)
[8] = dose: 400.0 mg/kg/injection, schedule: Q01DX001 (ip), vehicle: carboxymethylcellulose (CMC)
[9] = dose: 100.0 mg/kg/injection, schedule: Q04DX003 (ip), vehicle: saline with Tween-80
[10] = dose: 200.0 mg/kg/injection, schedule: Q04DX003 (ip), vehicle: saline with Tween-80
[11] = dose: 400.0 mg/kg/injection, schedule: Q04DX003 (ip), vehicle: saline with Tween-80
[12] = dose: 50.0 mg/kg/injection, schedule: Q01DX009 (ip), vehicle: saline with Tween-80
[13] = dose: 100.0 mg/kg/injection, schedule: Q01DX009 (ip), vehicle: saline with Tween-80
[14] = dose: 200.0 mg/kg/injection, schedule: Q01DX009 (ip), vehicle: saline with Tween-80
[15] = dose: 200.0 mg/kg/injection, schedule: Q04DX002 (ip), vehicle: saline with Tween-80
[16] = dose: 100.0 mg/kg/injection, schedule: Q04DX003 (ip), vehicle: Klucel (hydroxypropylcellulose) (HPC)
[17] = dose: 200.0 mg/kg/injection, schedule: Q04DX003 (ip), vehicle: Klucel (hydroxypropylcellulose) (HPC)
[18] = dose: 400.0 mg/kg/injection, schedule: Q04DX003 (ip), vehicle: Klucel (hydroxypropylcellulose) (HPC)
[19] = dose: 100.0 mg/kg/injection, schedule: Q04DX003 (ip), vehicle: saline
[20] = dose: 200.0 mg/kg/injection, schedule: Q04DX003 (ip), vehicle: saline
[21] = dose: 400.0 mg/kg/injection, schedule: Q04DX003 (ip), vehicle: saline

Measured: T/C

O=C(CCCC(=O)N/N=C/c1cc(Br)ccc1O)N/N=C\c1cc(Br)ccc1O
inactive: dose: 50.0 mg/kg/injection, schedule: Q01DX001 (ip), vehicle: saline 93 % of control | [1] 98 % of control | [2] 89 % of control | [3] 98 % of control | [4] 96 % of control | dose: 400.0 mg/kg/injection, schedule: Q01DX009 (ip), vehicle: saline 92 % of control

NCCSc1cc(O)c2c(c1N)C(=O)c1ccccc1C2=O
inactive: [5] 97 % of control | [6] 97 % of control | [7] 100 % of control | [8] 97 % of control

CC1(C)CCCC2(C)C3Cc4occc4C(C(=O)O)C3C(O)C(O)C12 (centres undefined)
inactive: [9] 106 % of control | [10] 109 % of control | [11] 98 % of control

COc1ccc(NC(=O)C2C3C=CC(C3)C2C(=O)O)cc1 (centres undefined)
inactive: [12] 98 % of control | [13] 100 % of control | [14] 100 % of control

CC(=O)C1C(=O)OC(C)=C(C(=O)O)C1=O (centres undefined)
inactive: [12] 102 % of control | [13] 100 % of control | [9] 92 % of control | [10] 103 % of control

CCOC(=N)Cc1cc(OC)c(OC)c(OC)c1
inactive: dose: 100.0 mg/kg/injection, schedule: Q04DX003 (ip), vehicle: saline sonified 100 % of control | dose: 200.0 mg/kg/injection, schedule: Q04DX003 (ip), vehicle: saline sonified 98 % of control | dose: 400.0 mg/kg/injection, schedule: Q04DX003 (ip), vehicle: saline sonified 102 % of control

O=C(O)CCc1cc([N+](=O)[O-])c(O)c([N+](=O)[O-])c1
inactive: [9] 96 % of control | [10] 101 % of control | [11] 99 % of control

CCOC(=O)C1C(=O)C=C(c2ccccc2)CC1c1ccccc1 (centres undefined)
inactive: [15] 90 % of control | dose: 400.0 mg/kg/injection, schedule: Q04DX002 (ip), vehicle: saline with Tween-80 97 % of control

CCOC(=O)c1cnc(SC)nc1Nc1cccc(Br)c1
inactive: dose: 100.0 mg/kg/injection, schedule: Q01DX009 (ip), vehicle: Klucel (hydroxypropylcellulose) (HPC) 91 % of control | [16] 97 % of control | dose: 200.0 mg/kg/injection, schedule: Q01DX009 (ip), vehicle: Klucel (hydroxypropylcellulose) (HPC) 96 % of control | [17] 92 % of control | dose: 400.0 mg/kg/injection, schedule: Q01DX009 (ip), vehicle: Klucel (hydroxypropylcellulose) (HPC) 93 % of control | [18] 90 % of control

CCNC(=O)CCP(=O)(CCC(=O)NCC)CCC(=O)NCC
inactive: dose: 50.0 mg/kg/injection, schedule: Q01DX009 (ip), vehicle: saline 94 % of control | dose: 50.0 mg/kg/injection, schedule: Q04DX003 (ip), vehicle: saline 101 % of control | [2] 90 % of control | [19] 101 % of control | dose: 200.0 mg/kg/injection, schedule: Q01DX009 (ip), vehicle: saline 90 % of control | [20] 101 % of control | [21] 101 % of control

COc1ccc(OC)c(CC(C)O)c1 (centres undefined)
inactive: [6] 101 % of control | [7] 101 % of control | [8] 98 % of control

O=C(O)CCCCCCC(=O)c1ccccc1
inactive: dose: 100.0 mg/kg/injection, schedule: Q01DX001 (ip), vehicle: saline with Tween-80 98 % of control | dose: 200.0 mg/kg/injection, schedule: Q01DX001 (ip), vehicle: saline with Tween-80 95 % of control | dose: 400.0 mg/kg/injection, schedule: Q01DX001 (ip), vehicle: saline with Tween-80 98 % of control

NN=C1C(Cl)=C(Cl)C(Cl)=C1Cl
inactive: [16] 93 % of control | [17] 93 % of control | [18] 98 % of control

CCN(CC)c1ccnc(SCc2ccccc2)n1
inactive: dose: 100.0 mg/kg/injection, schedule: Q01DX Z (ip), vehicle: methylcellulose (MC) 89 % of control | dose: 200.0 mg/kg/injection, schedule: Q01DX Z (ip), vehicle: methylcellulose (MC) 89 % of control

CCCCCCNC(=O)c1cccc(C(=O)NCCCCCC)c1
inactive: dose: 100.0 mg/kg/injection, schedule: Q04DX002 (ip), vehicle: Klucel (hydroxypropylcellulose) (HPC) 88 % of control | dose: 200.0 mg/kg/injection, schedule: Q04DX002 (ip), vehicle: Klucel (hydroxypropylcellulose) (HPC) 94 % of control | dose: 400.0 mg/kg/injection, schedule: Q04DX002 (ip), vehicle: Klucel (hydroxypropylcellulose) (HPC) 98 % of control

Nc1nc2c(c(-c3ccccc3)n1)CN(CCC(=O)O)C2=O
inactive: [1] 103 % of control | [19] 98 % of control | [3] 107 % of control | [20] 100 % of control | [4] 100 % of control | [21] 98 % of control

Cc1cccc(C)c1N(N=O)C(=O)c1ccccc1
inactive: dose: 75.0 mg/kg/injection, schedule: Q01DX001 (ip), vehicle: saline 98 % of control | dose: 150.0 mg/kg/injection, schedule: Q01DX001 (ip), vehicle: saline 98 % of control

S=c1cc(-c2ccco2)ss1
inactive: [13] 93 % of control | [9] 90 % of control | [14] 91 % of control | [10] 95 % of control | dose: 400.0 mg/kg/injection, schedule: Q01DX009 (ip), vehicle: saline with Tween-80 90 % of control | [11] 96 % of control

CC(=O)OCC1OC(N2C(=O)/C(=C/c3ccc(Br)s3)SC2=S)C(OC(C)=O)C(OC(C)=O)C1OC(C)=O (centres undefined)
inactive: dose: 25.0 mg/kg/injection, schedule: Q01DX005 (ip), vehicle: other 94 % of control | dose: 50.0 mg/kg/injection, schedule: Q01DX005 (ip), vehicle: other 94 % of control | dose: 100.0 mg/kg/injection, schedule: Q01DX005 (ip), vehicle: other 94 % of control

CC(C)=CCCC(C)CCOC(N)=O (centres undefined)
inactive: dose: 100.0 mg/kg/injection, schedule: Q04DX002 (ip), vehicle: saline with Tween-80 104 % of control | [15] 111 % of control

Oc1cccc(/C=N/Nc2nnc(N/N=C/c3cccc(O)c3)c3ccccc23)c1
inactive: [5] 108 % of control | [6] 101 % of control | [7] 98 % of control | [8] 96 % of control

S=C(S)NNc1ccccc1
inactive: dose: 25.0 mg/kg/injection, schedule: Q04DX003 (ip), vehicle: saline with Tween-80 104 % of control | [12] 86 % of control | dose: 50.0 mg/kg/injection, schedule: Q04DX003 (ip), vehicle: saline with Tween-80 109 % of control | [13] 86 % of control | [9] 109 % of control

CCP1CCC(=NNC(N)=S)CC1 (centres undefined)
inactive: dose: 12.5 mg/kg/injection, schedule: Q04DX002 (ip), vehicle: saline with Tween-80 95 % of control | dose: 25.0 mg/kg/injection, schedule: Q04DX002 (ip), vehicle: saline with Tween-80 95 % of control | dose: 50.0 mg/kg/injection, schedule: Q04DX002 (ip), vehicle: saline with Tween-80 93 % of control

O=c1cc[n]2c(n1)[O][Hg]2
inactive: dose: 5.0 mg/kg/injection, schedule: Q01DX001 (ip), vehicle: carboxymethylcellulose (CMC) 98 % of control | dose: 10.0 mg/kg/injection, schedule: Q01DX001 (ip), vehicle: carboxymethylcellulose (CMC) 98 % of control

Cc1ccc(COc2ccc(Cl)cc2Cn2ccnc2)cc1
inactive: [2] 102 % of control
